Test system: subjects with idiopathic hypersomnia (IH)
Assay: Part 6 POC IH: treatment-emergent adverse events, single doses, crossover
Settings: N = 8
Method: Part 6 consisted of a 4-way, 4-period crossover study design in approximately 8 subjects (2 subjects per sequence; minimum of 4 subjects with 1 subject per sequence). […] Treatments were administered under fasted state.
Subjects were randomized to 1 of 4 sequences. […] No food was given for at least 3 hours after dose administration (i.e., fast can be broken after the 3-hour PK time point is collected). Water was allowed ad libitum except for 1 hour before and 1 hour after study drug administration. Safety assessments including AEs, safety ECGs, vital signs, and clinical laboratory tests were conducted, and plasma PK samples were collected.
Adverse events (AEs) and serious adverse events (SAEs) were monitored continuously until the completion of the study.
Eight subjects with IH were dosed in Part 6 (POC in IH) in a randomized 4-sequence 4-period cross-over design.

With `CS(=O)(=O)N[C@H]1CCCN2C(=O)COc3ccccc3C3CCC(CC3)OCC12` (stereo partly drawn) [Compound A, N-[(4S,4aR,7α,10α)-1,2,3,4,4a,5,7,8,9,10,16,17-dodecahydro-17-oxo-7,10-ethanopyrido[1,2-d][1,7,4]benzodioxaazacyclotridecin-4-yl]methanesulfonamide] the “AE Leading to Study Drug Discontinuation” value (5 mg single dose) was 0 n (%), the “Any SAEs” value (5 mg single dose) was 0 n (%) and the “Any TEAE” value (5 mg single dose) was 6 (75.0) n (%). For the same compound, the Death (5 mg single dose) was 0 n (%), the “Drug Related TEAE by Preferred Term: Cold sweat” value (5 mg single dose) was 0 n (%) and the “Drug Related TEAE by Preferred Term: Dizziness” value (5 mg single dose) was 0 n (%). The “Drug Related TEAE by Preferred Term: Dysuria” value (5 mg single dose) was 0 n (%), the “Drug Related TEAE by Preferred Term: Feeling jittery” value (5 mg single dose) was 0 n (%) and the “Drug Related TEAE by Preferred Term: Insomnia” value (5 mg single dose) was 0 n (%). The “Drug Related TEAE by Preferred Term: Micturition urgency” value (5 mg single dose) was 1 (12.5) n (%), the “Drug Related TEAE by Preferred Term: Middle insomnia” value (5 mg single dose) was 1 (12.5) n (%) and the “Drug Related TEAE by Preferred Term: Palpitations” value (5 mg single dose) was 0 n (%). For the same compound, the “Drug Related TEAE by Preferred Term: Pollakiuria” value (5 mg single dose) was 2 (25.0) n (%), the “Drug Related TEAE by Preferred Term: Supraventricular extrasystoles” value (5 mg single dose) was 0 n (%) and the “Drug Related TEAE by Preferred Term: Tachycardia” value (5 mg single dose) was 0 n (%). For the same compound, the “Drug Related TEAE by Preferred Term: Visual impairment” value (5 mg single dose) was 0 n (%), the “Subjects with at least one TEAE” value (5 mg single dose) was 6 (75.0) n (%) and the “Subjects with at least one treatment-related TEAE” value (5 mg single dose) was 2 (25.0) n (%). The “TEAE by Highest Relationship: Not Related” value (5 mg single dose) was 4 (50.0) n (%), the “TEAE by Highest Relationship: Related” value (5 mg single dose) was 2 (25.0) n (%) and the “TEAE by Highest Severity: Mild” value (5 mg single dose) was 6 (75.0) n (%). The “TEAE by Highest Severity: Moderate” value (5 mg single dose) was 0 n (%), the “TEAE by Highest Severity: Severe” value (5 mg single dose) was 0 n (%) and the “TEAE by Preferred Term: Blood creatine phosphokinase increased” value (5 mg single dose) was 0 n (%). For the same compound, the “TEAE by Preferred Term: Blood creatinine increased” value (5 mg single dose) was 0 n (%), the “TEAE by Preferred Term: Cold sweat” value (5 mg single dose) was 0 n (%) and the “TEAE by Preferred Term: Dermatitis contact” value (5 mg single dose) was 0 n (%). For the same compound, the “TEAE by Preferred Term: Dizziness” value (5 mg single dose) was 2 (25.0) n (%), the “TEAE by Preferred Term: Dysuria” value (5 mg single dose) was 0 n (%) and the “TEAE by Preferred Term: Epistaxis” value (5 mg single dose) was 0 n (%). The “TEAE by Preferred Term: Feeling jittery” value (5 mg single dose) was 0 n (%), the “TEAE by Preferred Term: Headache” value (5 mg single dose) was 1 (12.5) n (%) and the “TEAE by Preferred Term: Insomnia” value (5 mg single dose) was 0 n (%). For the same compound, the “TEAE by Preferred Term: Micturition urgency” value (5 mg single dose) was 1 (12.5) n (%), the “TEAE by Preferred Term: Middle insomnia” value (5 mg single dose) was 1 (12.5) n (%) and the “TEAE by Preferred Term: Nausea” value (5 mg single dose) was 1 (12.5) n (%). The “TEAE by Preferred Term: Neck pain” value (5 mg single dose) was 1 (12.5) n (%), the “TEAE by Preferred Term: Palpitations” value (5 mg single dose) was 0 n (%) and the “TEAE by Preferred Term: Phlebitis” value (5 mg single dose) was 0 n (%). For the same compound, the “TEAE by Preferred Term: Pollakiuria” value (5 mg single dose) was 2 (25.0) n (%), the “TEAE by Preferred Term: Presyncope” value (5 mg single dose) was 0 n (%) and the “TEAE by Preferred Term: Skin irritation” value (5 mg single dose) was 1 (12.5) n (%). For the same compound, the “TEAE by Preferred Term: Steatorrhoea” value (5 mg single dose) was 0 n (%), the “TEAE by Preferred Term: Supraventricular extrasystoles” value (5 mg single dose) was 0 n (%) and the “TEAE by Preferred Term: Tachycardia” value (5 mg single dose) was 0 n (%). For the same compound, the “TEAE by Preferred Term: Urinary tract infection” value (5 mg single dose) was 1 (12.5) n (%), the “TEAE by Preferred Term: Vessel puncture site bruise” value (5 mg single dose) was 2 (25.0) n (%) and the “TEAE by Preferred Term: Vessel puncture site pain” value (5 mg single dose) was 0 n (%). For the same compound, the “TEAE by Preferred Term: Visual impairment” value (5 mg single dose) was 0 n (%), the “TEAE by Preferred Term: Vomiting” value (5 mg single dose) was 0 n (%) and the “AE Leading to Study Drug Discontinuation” value (12 mg single dose) was 0 n (%). For the same compound, the “Any SAEs” value (12 mg single dose) was 0 n (%), the “Any TEAE” value (12 mg single dose) was 5 (62.5) n (%) and the Death (12 mg single dose) was 0 n (%). For the same compound, the “Drug Related TEAE by Preferred Term: Cold sweat” value (12 mg single dose) was 0 n (%), the “Drug Related TEAE by Preferred Term: Dizziness” value (12 mg single dose) was 0 n (%) and the “Drug Related TEAE by Preferred Term: Dysuria” value (12 mg single dose) was 1 (12.5) n (%). The “Drug Related TEAE by Preferred Term: Feeling jittery” value (12 mg single dose) was 0 n (%), the “Drug Related TEAE by Preferred Term: Insomnia” value (12 mg single dose) was 0 n (%) and the “Drug Related TEAE by Preferred Term: Micturition urgency” value (12 mg single dose) was 0 n (%). For the same compound, the “Drug Related TEAE by Preferred Term: Middle insomnia” value (12 mg single dose) was 1 (12.5) n (%), the “Drug Related TEAE by Preferred Term: Palpitations” value (12 mg single dose) was 0 n (%) and the “Drug Related TEAE by Preferred Term: Pollakiuria” value (12 mg single dose) was 2 (25.0) n (%). The “Drug Related TEAE by Preferred Term: Supraventricular extrasystoles” value (12 mg single dose) was 0 n (%), the “Drug Related TEAE by Preferred Term: Tachycardia” value (12 mg single dose) was 0 n (%) and the “Drug Related TEAE by Preferred Term: Visual impairment” value (12 mg single dose) was 0 n (%). The “Subjects with at least one TEAE” value (12 mg single dose) was 5 (62.5) n (%), the “Subjects with at least one treatment-related TEAE” value (12 mg single dose) was 3 (37.5) n (%) and the “TEAE by Highest Relationship: Not Related” value (12 mg single dose) was 2 (25.0) n (%). The “TEAE by Highest Relationship: Related” value (12 mg single dose) was 3 (37.5) n (%), the “TEAE by Highest Severity: Mild” value (12 mg single dose) was 5 (62.5) n (%) and the “TEAE by Highest Severity: Moderate” value (12 mg single dose) was 0 n (%). The “TEAE by Highest Severity: Severe” value (12 mg single dose) was 0 n (%), the “TEAE by Preferred Term: Blood creatine phosphokinase increased” value (12 mg single dose) was 1 (12.5) n (%) and the “TEAE by Preferred Term: Blood creatinine increased” value (12 mg single dose) was 1 (12.5) n (%). For the same compound, the “TEAE by Preferred Term: Cold sweat” value (12 mg single dose) was 0 n (%), the “TEAE by Preferred Term: Dermatitis contact” value (12 mg single dose) was 0 n (%) and the “TEAE by Preferred Term: Dizziness” value (12 mg single dose) was 0 n (%). The “TEAE by Preferred Term: Dysuria” value (12 mg single dose) was 1 (12.5) n (%), the “TEAE by Preferred Term: Epistaxis” value (12 mg single dose) was 0 n (%) and the “TEAE by Preferred Term: Feeling jittery” value (12 mg single dose) was 0 n (%). For the same compound, the “TEAE by Preferred Term: Headache” value (12 mg single dose) was 1 (12.5) n (%), the “TEAE by Preferred Term: Insomnia” value (12 mg single dose) was 0 n (%) and the “TEAE by Preferred Term: Micturition urgency” value (12 mg single dose) was 0 n (%). The “TEAE by Preferred Term: Middle insomnia” value (12 mg single dose) was 1 (12.5) n (%), the “TEAE by Preferred Term: Nausea” value (12 mg single dose) was 1 (12.5) n (%) and the “TEAE by Preferred Term: Neck pain” value (12 mg single dose) was 0 n (%). For the same compound, the “TEAE by Preferred Term: Palpitations” value (12 mg single dose) was 0 n (%), the “TEAE by Preferred Term: Phlebitis” value (12 mg single dose) was 1 (12.5) n (%) and the “TEAE by Preferred Term: Pollakiuria” value (12 mg single dose) was 2 (25.0) n (%). For the same compound, the “TEAE by Preferred Term: Presyncope” value (12 mg single dose) was 1 (12.5) n (%), the “TEAE by Preferred Term: Skin irritation” value (12 mg single dose) was 0 n (%) and the “TEAE by Preferred Term: Steatorrhoea” value (12 mg single dose) was 1 (12.5) n (%). The “TEAE by Preferred Term: Supraventricular extrasystoles” value (12 mg single dose) was 0 n (%), the “TEAE by Preferred Term: Tachycardia” value (12 mg single dose) was 0 n (%) and the “TEAE by Preferred Term: Urinary tract infection” value (12 mg single dose) was 0 n (%). The “TEAE by Preferred Term: Vessel puncture site bruise” value (12 mg single dose) was 0 n (%), the “TEAE by Preferred Term: Vessel puncture site pain” value (12 mg single dose) was 0 n (%) and the “TEAE by Preferred Term: Visual impairment” value (12 mg single dose) was 0 n (%). For the same compound, the “TEAE by Preferred Term: Vomiting” value (12 mg single dose) was 0 n (%) and the “AE Leading to Study Drug Discontinuation” value (25 mg single dose) was 0 n (%).
